Experimental data published in publication PMC12888861, “Antibacterial activity of enmetazobactam against Acinetobacter spp.: a molecular dissection of mechanism of action and resistance determinants” (Antimicrobial Agents and Chemotherapy, 2025).
Values after ≈ are worked out from the molar mass of the structure shown.

Test system: carbapenem-resistant A. baumannii (CRAB) isolates (n = 67)
Assay: MIC, broth microdilution (EUCAST), carbapenem-resistant A. baumannii isolates
Type: cell-based, Acinetobacter baumannii
Conditions: for MIC: Acinetobacter baumannii
How it was run: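 Broth microdilution per EUCAST v.15 guidelines on clinical Acinetobacter isolates from a Spanish 2020 multicenter collection; enmetazobactam also tested alone. A. baumannii ATCC 19606 served as reference strain, in duplicate assays.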

[1] = CHDLs-producing A. baumannii isolates (n = 67), durlobactam series, DUR fixed 4 mg/L in combinations

## CC1(C)[C@H](C(=O)O)N2C(=O)C[C@H]2S1(=O)=O [sulbactam]
  MIC distribution ≥64: 100%
MBC set, isolate Ab4, A. baumannii ST 2, ADC-30, OXA-66, ISAba1-OXA-23
  MIC: 16 µg/mL (≈ 68.6 µM)
MBC set, isolate Ab6, A. baumannii ST 2, ADC-30, OXA-66, ISAba1-OXA-23, TEM-12
  MIC: 16 µg/mL (≈ 68.6 µM)
MBC set, isolate Ab9, A. baumannii ST 2, ADC-30, OXA-66, OXA-23, TEM-12
  MIC: 4 µg/mL (≈ 17.1 µM)
Isolate Ab56, ST 1, ADC-75, OXA-69, OXA-23, ETZ fixed 8 mg/L in combinations
  MIC: 8 µg/mL
Isolate Ab83, ST 25, ADC-5, OXA-64, OXA-23, DUR fixed at 4 mg/L in combinations
  MIC: 32 µg/mL
Isolate Ab83, ST 25, ADC-5, OXA-64, OXA-23, ETZ fixed 8 mg/L in combinations
  MIC: 32 µg/mL
Isolate Ab109, ST 1, ADC-75, OXA-69, OXA-23, DUR fixed at 4 mg/L in combinations
  MIC: 16 µg/mL
Isolate Ab109, ST 1, ADC-75, OXA-69, OXA-23, ETZ fixed 8 mg/L in combinations
  MIC: 16 µg/mL
Isolate Ab133, ST 2, ADC-30, OXA-66, OXA-58, TEM-12, DUR fixed at 4 mg/L in combinations
  MIC: 32 µg/mL
Isolate Ab133, ST 2, ADC-30, OXA-66, OXA-58, TEM-12, ETZ fixed 8 mg/L in combinations
  MIC: 32 µg/mL
Isolate Ab134, ST 2, ADC-30, OXA-66, OXA-58, TEM-12, DUR fixed at 4 mg/L in combinations
  MIC: 32 µg/mL
Isolate Ab134, ST 2, ADC-30, OXA-66, OXA-58, TEM-12, ETZ fixed 8 mg/L in combinations
  MIC: 32 µg/mL
Isolate Ab137, ST 85, ADC-2, OXA-94, OXA-23, DUR fixed at 4 mg/L in combinations
  MIC: 16 µg/mL
Isolate Ab137, ST 85, ADC-2, OXA-94, OXA-23, ETZ fixed 8 mg/L in combinations
  MIC: 16 µg/mL
Isolate Ab138, ST 745, ADC-30, OXA-66, OXA-58, DUR fixed at 4 mg/L in combinations
  MIC: 4 µg/mL
Isolate Ab138, ST 745, ADC-30, OXA-66, OXA-58, ETZ fixed 8 mg/L in combinations
  MIC: 8 µg/mL
Isolate Ab140, ST 85, ADC-2, OXA-94, OXA-23, DUR fixed at 4 mg/L in combinations
  MIC: 16 µg/mL
Isolate Ab140, ST 85, ADC-2, OXA-94, OXA-23, ETZ fixed 8 mg/L in combinations
  MIC: 16 µg/mL
Isolate Ab141, ST 745, ADC-30, OXA-66, OXA-58, DUR fixed at 4 mg/L in combinations
  MIC: 8 µg/mL
Isolate Ab141, ST 745, ADC-30, OXA-66, OXA-58, ETZ fixed 8 mg/L in combinations
  MIC: 8 µg/mL
Isolate Ab144, ST 745, ADC-30, OXA-66, OXA-58, DUR fixed at 4 mg/L in combinations
  MIC: 8 µg/mL
Isolate Ab144, ST 745, ADC-30, OXA-66, OXA-58, ETZ fixed 8 mg/L in combinations
  MIC: 8 µg/mL
Isolate Ab169, ST 2, ADC-30, OXA-66, OXA-23, DUR fixed at 4 mg/L in combinations
  MIC: 16 µg/mL
Isolate Ab169, ST 2, ADC-30, OXA-66, OXA-23, ETZ fixed 8 mg/L in combinations
  MIC: 16 µg/mL
Isolate Ab171, ST 2, ADC-30, OXA-66, OXA-23, DUR fixed at 4 mg/L in combinations
  MIC: 16 µg/mL
Isolate Ab171, ST 2, ADC-30, OXA-66, OXA-23, ETZ fixed 8 mg/L in combinations
  MIC: 16 µg/mL
Isolate Ab173, ST 2, ISAba1-ADC-30, OXA-66, OXA-23, DUR fixed at 4 mg/L in combinations
  MIC: 32 µg/mL
Isolate Ab173, ST 2, ISAba1-ADC-30, OXA-66, OXA-23, ETZ fixed 8 mg/L in combinations
  MIC: 32 µg/mL
Isolate Ab174, ST 2, ADC-30, OXA-66, OXA-23, DUR fixed at 4 mg/L in combinations
  MIC: 16 µg/mL
Isolate Ab174, ST 2, ADC-30, OXA-66, OXA-23, ETZ fixed 8 mg/L in combinations
  MIC: 16 µg/mL
Isolate Ab179, ST 2, ADC-30, OXA-66, OXA-23, DUR fixed at 4 mg/L in combinations
  MIC: 16 µg/mL
Isolate Ab179, ST 2, ADC-30, OXA-66, OXA-23, ETZ fixed 8 mg/L in combinations
  MIC: 16 µg/mL
Isolate Ab180, ST 2, ADC-30, OXA-66, OXA-24/40, DUR fixed at 4 mg/L in combinations
  MIC: 4 µg/mL
Isolate Ab180, ST 2, ADC-30, OXA-66, OXA-24/40, ETZ fixed 8 mg/L in combinations
  MIC: 4 µg/mL
Isolate Ab181, ST 2, ADC-30, OXA-66, OXA-23, DUR fixed at 4 mg/L in combinations
  MIC: 16 µg/mL
Isolate Ab181, ST 2, ADC-30, OXA-66, OXA-23, ETZ fixed 8 mg/L in combinations
  MIC: 16 µg/mL
Isolate Ab182, ST 2, ADC-30, OXA-66, OXA-23, DUR fixed at 4 mg/L in combinations
  MIC: 8 µg/mL
Isolate Ab182, ST 2, ADC-30, OXA-66, OXA-23, ETZ fixed 8 mg/L in combinations
  MIC: 8 µg/mL
Isolate Ab183, ST 2, ADC-30, OXA-66, OXA-23, DUR fixed at 4 mg/L in combinations
  MIC: 8 µg/mL
Isolate Ab183, ST 2, ADC-30, OXA-66, OXA-23, ETZ fixed 8 mg/L in combinations
  MIC: 8 µg/mL
Isolate Ab184, ST 2, ADC-30, OXA-66, OXA-23, DUR fixed at 4 mg/L in combinations
  MIC: 16 µg/mL
Isolate Ab184, ST 2, ADC-30, OXA-66, OXA-23, ETZ fixed 8 mg/L in combinations
  MIC: 16 µg/mL
Isolate Ab186, ST 2, ADC-30, OXA-66, OXA-23, DUR fixed at 4 mg/L in combinations
  MIC: 16 µg/mL
Isolate Ab186, ST 2, ADC-30, OXA-66, OXA-23, ETZ fixed 8 mg/L in combinations
  MIC: 16 µg/mL
Isolate Ab191, ST 2, ADC-30, OXA-66, OXA-23, DUR fixed at 4 mg/L in combinations
  MIC: 16 µg/mL
Isolate Ab191, ST 2, ADC-30, OXA-66, OXA-23, ETZ fixed 8 mg/L in combinations
  MIC: 16 µg/mL
Isolate Ab192, ST 2, ADC-30, OXA-66, OXA-23, DUR fixed at 4 mg/L in combinations
  MIC: 16 µg/mL
Isolate Ab192, ST 2, ADC-30, OXA-66, OXA-23, ETZ fixed 8 mg/L in combinations
  MIC: 16 µg/mL
Isolate Ab194, ST 2, ADC-30, OXA-66, OXA-23, DUR fixed at 4 mg/L in combinations
  MIC: 16 µg/mL
Isolate Ab194, ST 2, ADC-30, OXA-66, OXA-23, ETZ fixed 8 mg/L in combinations
  MIC: 16 µg/mL
Isolate Ab199, ST 2, ADC-30, OXA-66, OXA-23, DUR fixed at 4 mg/L in combinations
  MIC: 16 µg/mL
Isolate Ab199, ST 2, ADC-30, OXA-66, OXA-23, ETZ fixed 8 mg/L in combinations
  MIC: 16 µg/mL
Isolate Ab201, ST 2, ADC-30, OXA-66, OXA-23, DUR fixed at 4 mg/L in combinations
  MIC: 16 µg/mL
Isolate Ab201, ST 2, ADC-30, OXA-66, OXA-23, ETZ fixed 8 mg/L in combinations
  MIC: 16 µg/mL
Isolate Ab204, ST 2, ADC-30, OXA-66, OXA-23, DUR fixed at 4 mg/L in combinations
  MIC: 16 µg/mL
Isolate Ab204, ST 2, ADC-30, OXA-66, OXA-23, ETZ fixed 8 mg/L in combinations
  MIC: 8 µg/mL
[1]
  MIC50: 16 mg/L
  MIC90: 32 mg/L
Cumulative % of CHDLs-producing A. baumannii isolates (n = 67) at MIC 0.12 mg/L, DUR fixed 4 mg/L in combinations
  MIC distribution 0.12: 0.0%
Cumulative % of CHDLs-producing A. baumannii isolates (n = 67) at MIC 0.25 mg/L, DUR fixed 4 mg/L in combinations
  MIC distribution 0.25: 0.0%
Cumulative % of CHDLs-producing A. baumannii isolates (n = 67) at MIC 0.5 mg/L, DUR fixed 4 mg/L in combinations
  MIC distribution 0.5: 0.0%
Cumulative % of CHDLs-producing A. baumannii isolates (n = 67) at MIC 1 mg/L, DUR fixed 4 mg/L in combinations
  MIC distribution 1: 0.0%
Cumulative % of CHDLs-producing A. baumannii isolates (n = 67) at MIC 2 mg/L, DUR fixed 4 mg/L in combinations
  MIC distribution 2: 13.4%
Cumulative % of CHDLs-producing A. baumannii isolates (n = 67) at MIC 4 mg/L, DUR fixed 4 mg/L in combinations
  MIC distribution 4: 20.9%
Cumulative % of CHDLs-producing A. baumannii isolates (n = 67) at MIC 8 mg/L, DUR fixed 4 mg/L in combinations
  MIC distribution 8: 34.3%
Cumulative % of CHDLs-producing A. baumannii isolates (n = 67) at MIC 16 mg/L, DUR fixed 4 mg/L in combinations
  MIC distribution 16: 89.6%
Cumulative % of CHDLs-producing A. baumannii isolates (n = 67) at MIC 32 mg/L, DUR fixed 4 mg/L in combinations
  MIC distribution 32: 100%
Cumulative share of CRAB isolates (n = 67) at MIC 0.12 mg/L, ETZ fixed 8 mg/L in combinations
  MIC distribution 0.12: 0
Cumulative share of CRAB isolates (n = 67) at MIC 0.25 mg/L, ETZ fixed 8 mg/L in combinations
  MIC distribution 0.25: 0
Cumulative share of CRAB isolates (n = 67) at MIC 0.5 mg/L, ETZ fixed 8 mg/L in combinations
  MIC distribution 0.5: 0
Cumulative share of CRAB isolates (n = 67) at MIC 1 mg/L, ETZ fixed 8 mg/L in combinations
  MIC distribution 1: 0
Cumulative share of CRAB isolates (n = 67) at MIC 2 mg/L, ETZ fixed 8 mg/L in combinations
  MIC distribution 2: 14.9
